Experimental data from patent US20220175926A1, “TARGETED SYNERGISTIC CANCER IMMUNOTHERAPY” (The Brigham and Women's Hospital, Inc., priority 2019, published 2022).

Columns and labels:
[1] = Pharmacokinetic study after intravenous injection; assay type: in vivo; conditions: C57BL/6 mice
Experimental: C57BL/6 mice were intravenously injected with free ICG or lipo-ICG (liposome encapsulated ICG). At predetermined time points (0.25, 1, 3, 7, and 24 h post injection), 50 ul blood were collected in Microvette 500 Z-gel tubes by submandibular bleeding and kept on ice. The samples were centrifuged at 10,000 g for 5 min at room temperature, and 10 ul of the serum were diluted to 100 ul with PBS and the fluorescence intensity was measured at Ex=780, Em=810 nm.

CT26 = experiment: Transwell co-culture assay, viability of CT26 tumor cells cocultured with RAW 264.7 macrophages (XTT); assay type: cell-based; conditions: single component or component removed
Experimental: RAW 264.7 macrophages were seeded in a Transwell insert at a density of 200,000 cells per insert (Corning, N.Y., USA) and CT26 (ATCC, VA, USA) were seeded in the lower compartment at a density of 200,000 cells per well, which was separated by a porous membrane (well area: 0.3 cm^2, insert size: 6.5 mm). Cells were incubated with […] and/or 20 ng/mL ICG for 24 h. Ultrasound irradiation (frequency: 1 MHz; duty cycle: 50%; power: 2 W/cm^2) was performed for 5 min. The viability of tumor cells after treatment with different formulations in the absence or presence of ultrasound was determined by XTT Cell Proliferation Assay Kit (ATCC, VA, USA) following the manufacturer's instructions.

[2] = Loading efficiency in liposomes; assay type: physicochemical; conditions: sonosensitizer incubated with preformed liposomes at room temperature
Experimental: The lipid suspension was extruded through the 100 nm polycarbonate membrane using the extruder (Avanti, AL, USA) to obtain blank liposomes. Ethanol was removed by dialysis overnight at 4° C. To load the sonosensitizer in liposomes, ICG was firstly conjugated to a lipid tail such as DOPE before incubation with preformed blank liposomes at room temperature for 30 min. Unloaded ICG was removed by using the PD-10 column (GE Healthcare). To load PAPC (Avanti, AL, USA) in liposomes, the proper amount of PAPC in DMSO stock solution was incubated with liposomes containing ICG at room temperature for 30 min and the obtained formulation was used without further purification. To load R848 (Sigma, MO, USA) in liposomes, blank liposomes were firstly prepared in 250 mM ammonium sulfate, and the external ammonium sulfate was exchanged to 10% sucrose by dialysis overnight at 4° C., followed by incubation with R848 at 55° C. for 30 min and removal of unloaded R848 by dialysis overnight at 4° C. To measure the size of liposomes, 10 ul of liposomes were diluted to 2 mL with PBS and the size was measured with Zeta sizer. To measure the amount of ICG, 10 ul liposomes were added with 190 ul DMSO and the fluorescence was measured at Ex=780 nm, Em=810 nm.

iBMDM = experiment: IL-1β secretion from iBMDM (ELISA); assay type: cell-based, mouse
Experimental: RAW 264.7 macrophages (ATCC, VA, USA) were seeded in a 96 well plate at a density of 20,000 cells per well. Cells were incubated with 10 ng/mL R848 (Sigma, MO, USA) and/or 20 ng/mL ICG (Sigma, MO, USA) for 24 h. Ultrasound irradiation (frequency: 1 MHz; duty cycle: 50%; power: 2 W/cm^2) was applied to these cells for up to 5 min. TNFα secretion was analyzed by mouse TNFα DuoSet ELISA (R&D Systems, MN, USA) following the manufacturer's instructions. To measure IL-1β secretion, immortal bone marrow derived macrophages or iBMDM (BCH, MA, USA)) were seeded in a 96 well plate at a density of 20,000 cells per well. Cells were incubated with 10 ng/mL PAPC (Avanti, AL, USA) and/or 20 ng/mL ICG for 24 h. Ultrasound irradiation (frequency: 1 MHz; duty cycle: 50%; power: 2 W/cm^2) was applied to these cells for up to 5 min. IL-1β secretion was analyzed by mouse IL-1β ELISA (Invitrogen, CA, USA) following the manufacturer's instructions. In some experiments, cells were also treated with 0.5, 1, or 2 mM of ROS scavenger N-acetyl-cysteine (Sigma, MO, USA) right before treatment with ultrasound.

RAW 264.7 macrophages = experiment: TNFα secretion from RAW 264.7 macrophages (ELISA); assay type: cell-based, mouse; conditions: RAW264.7 macrophages; compared with no treatment control
Experimental: RAW 264.7 macrophages (ATCC, VA, USA) were seeded in a 96 well plate at a density of 20,000 cells per well. Cells were incubated with 10 ng/mL R848 (Sigma, MO, USA) and/or 20 ng/mL ICG (Sigma, MO, USA) for 24 h. Ultrasound irradiation (frequency: 1 MHz; duty cycle: 50%; power: 2 W/cm^2) was applied to these cells for up to 5 min. TNFα secretion was analyzed by mouse TNFα DuoSet ELISA (R&D Systems, MN, USA) following the manufacturer's instructions. […] In some experiments, cells were also treated with 0.5, 1, or 2 mM of ROS scavenger N-acetyl-cysteine (Sigma, MO, USA) right before treatment with ultrasound.

Structure (SMILES)	detectability of ICG in serum after injection [1]	CT26 cell viability (CT26)	loading efficiency [2]	IL-1β release (iBMDM)	TNFα release (RAW 264.7 macrophages)	IL-1β release on ROS depletion (iBMDM; ROS scavenger added to PAPC+ICG+US)
CC1(C)C(/C=C/C=C/C=C/C=C2\N(CCCCS(=O)(=O)O)c3ccc4ccccc4c3C2(C)C)=[N+](CCCCS(=O)(=O)[O-])c2ccc3ccccc3c21 [ICG, indocyanine green]	not detectable within a few minutes after injection	modest decrease of CT26 cell viability	less than 20%	didn't induce any detectable level of IL-1β	didn't induce significant TNFα release	–
CC(=O)N[C@@H](CS)C(=O)O [NAC, N-acetyl-cysteine]	–	–	–	–	–	dose dependent reduction of IL-1β
CCCCC/C=C\C/C=C\C/C=C\C/C=C\CCCC(=O)O[C@H](COC(=O)CCCCCCCCCCCCCCC)COP(=O)([O-])OCC[N+](C)(C)C [PAPC, 1-palmitoyl-2-arachidonoyl-sn-glycero-3-phosphocholine]	–	–	–	didn't induce any detectable level of IL-1β	–	–
